Test results as given in the supplement of paper PMC11451515.

System: NOMO1
Test: cell viability relative to DMSO control; higher = less cytotoxic
Details: 48 h
How it was run: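 Leukemia cells (NOMO1 or SEM, 500 cells/well; P12-Ichikawa, 1000 cells/well) were seeded in 5 μl in 1536-well plates after at least four passages of adaptation to each medium. They received library compounds in DMSO by pin dosing, 11 threefold points from 47 μM to 0.79 nM. Luminescence with CellTiter-Glo One was read after 48 h at 37°C. Viability is stated per plate relative to DMSO wells, with cell-free wells as background.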

[1] = HPLM + 10% dialyzed FBS, 0.000781 µM
[2] = HPLM + 10% dialyzed FBS, 0.00234 µM
[3] = HPLM + 10% dialyzed FBS, 0.00702 µM
[4] = HPLM + 10% dialyzed FBS, 0.0211 µM
[5] = HPLM + 10% dialyzed FBS, 0.0632 µM
[6] = HPLM + 10% dialyzed FBS, 0.19 µM
[7] = HPLM + 10% dialyzed FBS, 0.569 µM
[8] = HPLM + 10% dialyzed FBS, 1.71 µM
[9] = HPLM + 10% dialyzed FBS, 5.12 µM
[10] = HPLM + 10% dialyzed FBS, 15.4 µM
[11] = HPLM + 10% dialyzed FBS, 46.1 µM
[12] = RPMI 5 mM glucose + 10% FBS, 0.000781 µM
[13] = RPMI 5 mM glucose + 10% FBS, 0.00234 µM
[14] = RPMI 5 mM glucose + 10% FBS, 0.00702 µM
[15] = RPMI 5 mM glucose + 10% FBS, 0.0211 µM
[16] = RPMI 5 mM glucose + 10% FBS, 0.0632 µM
[17] = RPMI 5 mM glucose + 10% FBS, 0.19 µM
[18] = RPMI 5 mM glucose + 10% FBS, 0.569 µM
[19] = RPMI 5 mM glucose + 10% FBS, 1.71 µM
[20] = RPMI 5 mM glucose + 10% FBS, 5.12 µM
[21] = RPMI 5 mM glucose + 10% FBS, 15.4 µM
[22] = RPMI 5 mM glucose + 10% FBS, 46.1 µM
[23] = RPMI 5 mM glucose + 10% dialyzed FBS, 0.000781 µM
[24] = RPMI 5 mM glucose + 10% dialyzed FBS, 0.00234 µM
[25] = RPMI 5 mM glucose + 10% dialyzed FBS, 0.00702 µM
[26] = RPMI 5 mM glucose + 10% dialyzed FBS, 0.0211 µM
[27] = RPMI 5 mM glucose + 10% dialyzed FBS, 0.0632 µM
[28] = RPMI 5 mM glucose + 10% dialyzed FBS, 0.19 µM
[29] = RPMI 5 mM glucose + 10% dialyzed FBS, 0.569 µM
[30] = RPMI 5 mM glucose + 10% dialyzed FBS, 1.71 µM
[31] = RPMI 5 mM glucose + 10% dialyzed FBS, 5.12 µM
[32] = RPMI 5 mM glucose + 10% dialyzed FBS, 15.4 µM
[33] = RPMI 5 mM glucose + 10% dialyzed FBS, 46.1 µM

SMILES | cell viability [1] | cell viability [2] | cell viability [3] | cell viability [4] | cell viability [5] | cell viability [6] | cell viability [7] | cell viability [8] | cell viability [9] | cell viability [10] | cell viability [11] | cell viability [12] | cell viability [13] | cell viability [14] | cell viability [15] | cell viability [16] | cell viability [17] | cell viability [18] | cell viability [19] | cell viability [20] | cell viability [21] | cell viability [22] | cell viability [23] | cell viability [24] | cell viability [25] | cell viability [26] | cell viability [27] | cell viability [28] | cell viability [29] | cell viability [30] | cell viability [31] | cell viability [32] | cell viability [33]
O=C\1N(N\C=C1[N]2C=CN=N2)C3=NC=NC(=C3)N4CCOCC4 | 81.9% | 84.5% | 82% | 83.9% | 25.7% | 25.8% | 26.3% | 23.8% | 28.3% | 28.4% | 26.6% | 71.2% | 83.9% | 82.7% | 87.8% | 71% | 16.8% | 12.8% | 14.9% | 15.6% | 14.2% | 16.5% | 70.9% | 79.4% | 81.5% | 88.9% | 72.9% | 29.9% | 14.4% | 19.6% | 18.6% | 19.4% | 18.8%
CC[C@@]1(O)C(=O)OCC/2=C1/C=C3\N(CC4=CC5=CC(=CC=C5N=C34)O)C2=O |  |  |  |  |  |  |  |  |  |  |  | 116% | 123% | 133% | 107% | 113% | 33.3% | 23.8% | 22.6% | 18.6% | 22.8% | 13.4% | 111% | 124% | 117% | 117% | 121% | 40.4% | 23.8% | 25.8% | 24.5% | 26.4% | 9.6%
COC(=O)C1C2CC3c4[nH]c5cc(OC)ccc5c4CCN3CC2CC(OC(=O)c2cc(OC)c(OC)c(OC)c2)C1OC (stereo not drawn) | 108% | 123% | 101% | 125% | 119% | 112% | 115% | 106% | 112% | 102% | 81.3% | 106% | 94.6% | 107% | 103% | 95.2% | 104% | 93.4% | 94.1% | 96.4% | 95.7% | 90.2% | 105% | 101% | 103% | 93.8% | 92.1% | 98.2% | 98.5% | 105% | 102% | 112% | 82.9%
NCCCCNCCCN | 110% | 101% | 119% | 112% | 109% | 95.3% | 116% | 121% | 105% | 67.1% | 26.7% | 108% | 99.6% | 98.2% | 104% | 99.4% | 104% | 94.8% | 99.1% | 105% | 103% | 27.7% | 107% | 104% | 111% | 107% | 107% | 105% | 110% | 115% | 119% | 109% | 35.4%
C=CCc1cccc(/C=N/NC(=O)CN2CCN(Cc3ccccc3)CC2)c1O |  |  |  |  |  |  |  |  |  |  |  | 120% | 115% | 108% | 119% | 116% | 109% | 114% | 100% | 115% | 96.5% | 8.9% |  |  |  |  |  |  |  |  |  |  | 
CN1\N=C(N)/C2=C[N]([C@@H]3O[C@H](CO[P](O)(O)=O)[C@@H](O)[C@H]3O)C4=C2C1=NC=N4 | 108% | 111% | 124% | 111% | 104% | 88.6% | 74.6% | 67.7% | 59.5% | 30.1% | 16.2% | 109% | 107% | 112% | 99.9% | 99.2% | 89.6% | 93.7% | 77.3% | 84.1% | 52.1% | 50% | 98.8% | 114% | 104% | 105% | 94.7% | 82.3% | 72.2% | 61.5% | 52.6% | 38% | 30.6%
CCC(=O)N[C@H]1CC[C@H](C(=O)N(C)c2ccc(-c3nc4ccccc4o3)cc2)C1 | 85.7% | 106% | 74.4% | 111% | 103% | 92.5% | 97.6% | 98.2% | 101% | 98.5% | 78.3% | 95.8% | 100% | 89.6% | 85.1% | 99.4% | 101% | 97.4% | 94.2% | 86% | 88.6% | 96.9% | 83.8% | 89.2% | 89.8% | 87.8% | 86.1% | 86% | 94.1% | 90.4% | 84.6% | 81% | 84.6%
CC(C)c1cnn2c(NCc3ccccc3)cc(NCCCCCCN)nc12 |  |  |  |  |  |  |  |  |  |  |  | 115% | 107% | 117% | 121% | 109% | 122% | 112% | 114% | 116% | 106% | 101% | 115% | 116% | 104% | 125% | 119% | 118% | 114% | 107% | 110% | 101% | 110%
O=C(Oc1ccc([N+](=O)[O-])cc1)N1CCC(C(O)(c2ccc3c(c2)OCO3)c2ccc3c(c2)OCO3)CC1 | 102% | 95.5% | 93% | 119% | 107% | 92.3% | 107% | 88.5% | 85.3% | 89.8% | 58.4% | 87.7% | 87.7% | 83% | 91.8% | 96.6% | 90.1% | 86.2% | 86.3% | 88.3% | 88.4% | 89.2% | 73.1% | 73.3% | 86% | 80.4% | 90.3% | 77.9% | 84.2% | 71% | 65.6% | 74.6% | 74.5%
